Test results reported in PubChem BioAssay AID1745844 (Carcinogenic Potency Database (CPDB), 2022).
Activity calls are given as the source filed them. No rule for the calls is given here.

Test system: rodent lifetime carcinogenesis bioassay, tumor incidence TD50
Assay: chronic cancer bioassays in animals – CPDB, compiled studies (AID 1745844)

`COc1ccc(N)c(OC)c1` was tested, and the TD50 (mouse, strain B6C3F1, females, in feed, site: any site (literature study), lesion: several types, types named in the paper, dosed 103 weeks, study length 104 weeks) was 986 mg/kg/day (inactive), the TD50 (mouse, strain B6C3F1, females, in feed, site: liver, lesion: hepatocellular adenoma + hepatocellular carcinoma + neoplastic nodule, dosed 103 weeks, study length 104 weeks) was 2790 mg/kg/day and the TD50 (mouse, strain B6C3F1, females, in feed, site: lung, lesion: alveolar/bronchiolar adenoma + alveolar/bronchiolar carcinoma, dosed 103 weeks, study length 104 weeks) was 50600 mg/kg/day. For the same compound, the TD50 (mouse, strain B6C3F1, males, in feed, site: any site (literature study), lesion: several types, types named in the paper, dosed 103 weeks, study length 104 weeks) was 1650 mg/kg/day (inactive), the TD50 (mouse, strain B6C3F1, males, in feed, site: liver, lesion: hepatocellular adenoma + hepatocellular carcinoma + neoplastic nodule, dosed 103 weeks, study length 104 weeks) was 1390 mg/kg/day and the carcinogen call (rat, strain Fischer 344, females, in feed, site: any site (literature study), lesion: several types, types named in the paper, dosed 104 weeks, study length 105 weeks) was “negative (inactive)”. For the same compound, the carcinogen call (rat, strain Fischer 344, males, in feed, site: any site (literature study), lesion: several types, types named in the paper, dosed 104 weeks, study length 105 weeks) was “negative (inactive)”.
For `CC(C)(Oc1ccc(C2CC2(Cl)Cl)cc1)C(=O)O` (centres undefined), the TD50 (mouse, strain C57BL/6N, males, in feed, site: liver, lesion: hepatocellular adenoma, dosed 78 weeks, study length 78 weeks) was 5.89 mg/kg/day, the TD50 (mouse, strain C57BL/6N, males, in feed, site: liver, lesion: hepatocellular adenoma, dosed 89 weeks, study length 91 weeks) was 19.2 mg/kg/day and the TD50 (mouse, strain C57BL/6N, males, in feed, site: liver, lesion: hepatocellular carcinoma, dosed 78 weeks, study length 78 weeks) was 12.3 mg/kg/day. The TD50 (mouse, strain C57BL/6N, males, in feed, site: liver, lesion: hepatocellular carcinoma, dosed 89 weeks, study length 91 weeks) was 46.4 mg/kg/day, the TD50 (mouse, strain C57BL/6N, males, in feed, site: liver, lesion: several types, types named in the paper, dosed 78 weeks, study length 78 weeks) was 4.17 mg/kg/day and the TD50 (mouse, strain C57BL/6N, males, in feed, site: liver, lesion: several types, types named in the paper, dosed 89 weeks, study length 91 weeks) was 12.1 mg/kg/day. For the same compound, the TD50 (rat, strain Fischer 344, females, in feed, site: stomach, glandular, lesion: carcinoid tumor, malignant, dosed 104 weeks, study length 104 weeks) was 531 mg/kg/day, the carcinogen call (rat, strain Fischer 344, males, in feed, site: liver, lesion: hepatocellular carcinoma, dosed 60 weeks, study length 60 weeks) was “positive” and the carcinogen call (rat, strain Fischer 344, males, in feed, site: liver, lesion: neoplastic nodule, dosed 60 weeks, study length 60 weeks) was “positive”. For the same compound, the carcinogen call (rat, strain Fischer 344, males, in feed, site: liver, lesion: several types, types named in the paper, dosed 60 weeks, study length 60 weeks) was “positive”, the carcinogen call (rat, strain Fischer 344, males, in feed, site: liver, lesion: several types, types named in the paper, dosed 95 weeks, study length 95 weeks) was “positive” and the TD50 (rat, strain Fischer 344, males, in feed, site: stomach, glandular, lesion: carcinoid tumor, malignant, dosed 104 weeks, study length 104 weeks) was 103 mg/kg/day. For the same compound, the carcinogen call (rat, strain Fischer 344, males, in feed, site: testis, lesion: Leydig-cell tumor, dosed 95 weeks, study length 95 weeks) was “negative (inactive)”.
In the case of `Cc1c(COC(=O)[C@@H]2[C@H](/C=C(\Cl)C(F)(F)F)C2(C)C)cccc1-c1ccccc1`, the TD50 (mouse, strain Swiss Webster, males, in feed, site: urinary bladder, lesion: mesenchymal neoplasm, dosed 86 weeks, study length 86 weeks) is reported as 286 mg/kg/day.
In the case of `Nc1ccc(N=Nc2ccc(-c3ccc(N=Nc4c(S(=O)(=O)O)cc5cc(S(=O)(=O)O)c(N=Nc6ccccc6)c(O)c5c4N)cc3)cc2)c(N)c1`, the TD50 (mouse, strain ICR, both sexes, in drinking water, site: any site (literature study), lesion: several types, types named in the paper, dosed 57 weeks, study length 57 weeks) is reported as 32 mg/kg/day, the TD50 (mouse, strain ICR, both sexes, in drinking water, site: liver, lesion: hepatoma, dosed 57 weeks, study length 57 weeks) is reported as 71.6 mg/kg/day and the TD50 (mouse, strain ICR, both sexes, in drinking water, site: mammary gland, lesion: several types, types named in the paper, dosed 57 weeks, study length 57 weeks) is reported as 262 mg/kg/day. The TD50 (rat, strain Fischer 344, females, in feed, site: any site (literature study), lesion: several types, types named in the paper, dosed 13 weeks, study length 13 weeks) was 2.61 mg/kg/day, the TD50 (rat, strain Fischer 344, females, in feed, site: liver, lesion: hepatocellular adenoma + hepatocellular carcinoma + neoplastic nodule, dosed 13 weeks, study length 13 weeks) was 2.61 mg/kg/day and the TD50 (rat, strain Fischer 344, females, in feed, site: liver, lesion: neoplastic nodule, dosed 13 weeks, study length 13 weeks) was 2.61 mg/kg/day. The TD50 (rat, strain Fischer 344, males, in feed, site: any site (literature study), lesion: several types, types named in the paper, dosed 13 weeks, study length 13 weeks) was 0.945 mg/kg/day, the TD50 (rat, strain Fischer 344, males, in feed, site: liver, lesion: hepatocellular adenoma + hepatocellular carcinoma + neoplastic nodule, dosed 13 weeks, study length 13 weeks) was 0.945 mg/kg/day and the TD50 (rat, strain Fischer 344, males, in feed, site: liver, lesion: hepatocellular carcinoma + neoplastic nodule, dosed 13 weeks, study length 13 weeks) was 0.945 mg/kg/day. For the same compound, the TD50 (rat, strain Fischer 344, males, in feed, site: liver, lesion: hepatocellular carcinoma, dosed 13 weeks, study length 13 weeks) was 2.22 mg/kg/day.
In the case of `CN=[N+](C)[O-]`, the TD50 (rat, strain Fischer 344, males, by gavage, site: Zymbal's gland, lesion: carcinoma, dosed 30 weeks, study length 65 weeks) is reported as 0.204 mg/kg/day, the TD50 (rat, strain Fischer 344, males, by gavage, site: colon, lesion: malignant tumor, dosed 30 weeks, study length 65 weeks) is reported as 0.171 mg/kg/day and the TD50 (rat, strain Fischer 344, males, by gavage, site: colon, lesion: one or several types, types not named, dosed 30 weeks, study length 65 weeks) is reported as 0.102 mg/kg/day. The TD50 (rat, strain Fischer 344, males, by gavage, site: kidney, lesion: mesenchymal neoplasm, dosed 30 weeks, study length 65 weeks) was 0.3 mg/kg/day, the carcinogen call (rat, strain Fischer 344, males, by gavage, site: liver, lesion: one or several types, types not named, dosed 30 weeks, study length 65 weeks) was “negative (inactive)” and the TD50 (rat, strain Fischer 344, males, in drinking water, site: colon, lesion: several types, types named in the paper, dosed 30 weeks, study length 100 weeks) was 0.585 mg/kg/day. The TD50 (rat, strain Fischer 344, males, in drinking water, site: kidney, lesion: several types, types named in the paper, dosed 30 weeks, study length 100 weeks) was 0.388 mg/kg/day, the TD50 (rat, strain Fischer 344, males, in drinking water, site: liver, lesion: hemangiosarcoma, dosed 30 weeks, study length 100 weeks) was 0.982 mg/kg/day and the TD50 (rat, strain Fischer 344, males, in drinking water, site: liver, lesion: hepatocellular carcinoma, dosed 30 weeks, study length 100 weeks) was 0.0677 mg/kg/day. It also gave a TD50 (rat, strain Fischer 344, males, in drinking water, site: liver, lesion: neoplastic nodule, dosed 30 weeks, study length 100 weeks) of 28.6 mg/kg/day and a TD50 (rat, strain Fischer 344, males, in drinking water, site: liver, lesion: several types, types named in the paper, dosed 30 weeks, study length 100 weeks) of 0.0302 mg/kg/day.
In the case of `CCN(Cc1cccc(S(=O)(=O)O)c1)c1ccc(C(=C2C=CC(=[N+](CC)Cc3cccc(S(=O)(=O)[O-])c3)C=C2)c2ccccc2)cc1`, the TD50 (mouse, strain C3HeB/FeJ, females, in feed, site: any site (literature study), lesion: malignant tumor, dosed 104 weeks, study length 104 weeks) is reported as 18400 mg/kg/day (inactive), the carcinogen call (mouse, strain C3HeB/FeJ, females, in feed, site: any site (literature study), lesion: several types, types named in the paper, dosed 104 weeks, study length 104 weeks) is reported as “negative (inactive)” and the TD50 (mouse, strain C3HeB/FeJ, females, in feed, site: liver, lesion: several types, types named in the paper, dosed 104 weeks, study length 104 weeks) is reported as 146000 mg/kg/day (inactive). The TD50 (mouse, strain C3HeB/FeJ, females, in feed, site: lung, lesion: adenoma, dosed 104 weeks, study length 104 weeks) was 146000 mg/kg/day (inactive), the carcinogen call (mouse, strain C3HeB/FeJ, males, in feed, site: any site (literature study), lesion: malignant tumor, dosed 104 weeks, study length 104 weeks) was “negative (inactive)” and the TD50 (mouse, strain C3HeB/FeJ, males, in feed, site: any site (literature study), lesion: several types, types named in the paper, dosed 104 weeks, study length 104 weeks) was 20800 mg/kg/day (inactive). The TD50 (mouse, strain C3HeB/FeJ, males, in feed, site: liver, lesion: several types, types named in the paper, dosed 104 weeks, study length 104 weeks) was 26100 mg/kg/day (inactive), the TD50 (mouse, strain C3HeB/FeJ, males, in feed, site: lung, lesion: several types, types named in the paper, dosed 104 weeks, study length 104 weeks) was 59200 mg/kg/day and the carcinogen call (rat, strain Osborne-Mendel, females, in feed, site: any site (literature study), lesion: malignant tumor, dosed 104 weeks, study length 104 weeks) was “negative (inactive)”. The TD50 (rat, strain Osborne-Mendel, females, in feed, site: any site (literature study), lesion: several types, types named in the paper, dosed 104 weeks, study length 104 weeks) was 97500 mg/kg/day, the TD50 (rat, strain Osborne-Mendel, females, in feed, site: liver, lesion: several types, types named in the paper, dosed 104 weeks, study length 104 weeks) was 13800 mg/kg/day and the carcinogen call (rat, strain Osborne-Mendel, males, in feed, site: any site (literature study), lesion: malignant tumor, dosed 104 weeks, study length 104 weeks) was “negative (inactive)”. It also gave a TD50 (rat, strain Osborne-Mendel, males, in feed, site: any site (literature study), lesion: several types, types named in the paper, dosed 104 weeks, study length 104 weeks) of 11400 mg/kg/day, a TD50 (rat, strain Osborne-Mendel, males, in feed, site: liver, lesion: several types, types named in the paper, dosed 104 weeks, study length 104 weeks) of 5980 mg/kg/day and a TD50 (rat, strain Wistar, both sexes, in feed, site: abdomen, lesion: malignant lymphoma, dosed 93 weeks, study length 93 weeks) of 8370 mg/kg/day. The TD50 (rat, strain Wistar, both sexes, in feed, site: mediastinum, lesion: malignant lymphoma, dosed 93 weeks, study length 93 weeks) was 8370 mg/kg/day and the TD50 (rat, strain Wistar, both sexes, in feed, site: several sites, sites named in the paper, lesion: malignant lymphoma, dosed 93 weeks, study length 93 weeks) was 3920 mg/kg/day.
